1 compound from publication PMC9230136 (Pharmaceutics, 2022) can be followed below.

The test system of data set [1] is HeLa cells. Kind of data set: EdU cell proliferation assay. In kind it is cell-based, human. Conditions: 25 or 50 nM; 24 h. The procedure:
HeLa cells were seeded in a 6-well plate and, after a 24 h incubation, were treated with the desired compounds as indicated in the Biological Results and Discussion section. Cells were re-incubated for one day and then labeled with EdU (10 μM) for 3 h under cell culture conditions. Cells were harvested by centrifugation before proceeding with the fixation step using 3.7% formaldehyde. Next, permeabilization with 0.5% Triton X-100 was performed. The reaction cocktail was prepared and added to each well (100 μL/well) following the manufacturer’s instructions (EdU-Click 488, base click, Sigma-Aldrich. Milano Italy), and the plate was incubated at room temperature for 30 min in the dark. Cells were washed 2 times with phosphate-buffered saline (PBS) before reading samples with a Beckman Coulter Cytomics FC500 instrument (λex/λem = 496/516 nm).

The subject of data set [2] is HeLa cells. Kind of data set: Immunofluorescence labeling of microtubules. It counts as cell-based, human. Conditions: 10 nM, 24 h. The procedure:
HeLa cells were seeded at 15,000 cells/well in a NuncTM Lab-Tek 8-well Chamber SlideTM System (Thermo Fisher Scientific) and incubated under cell culture conditions for 24 h. The cells were treated with various concentrations of compounds or solvent (DMSO as control) and incubated for another 24 h.
After the pharmacological treatment, cells were rinsed with PBS and fixed with 200 μL of 4% paraformaldehyde in PBS for 15 min at room temperature. Cells were then washed twice with PBS 1X before proceeding with permeabilization and protein saturation using a blocking buffer containing 3% bovine serum albumin and 0.1% Triton X-100. Cells were maintained in the blocking buffer for 30 min at room temperature before performing immunostaining of microtubules. Cells were incubated with a murine monoclonal anti-β tubulin antibody (Sigma-Aldrich, Milano, Italy) overnight at 4 °C.
After three washes with PBS 1X, cells were incubated for 1 h at room temperature in the dark with a secondary antibody conjugated to Alexa FluorTM 488 (Invitrogen, Thermo Fisher Scientific, Waltham, MA, USA)). […]
Alterations in the microtubule cytoskeleton were documented by fluorescence microscopy using a Zeiss LSM 800 with Airyscan Confocal Spectral microscope (100× magnification) (New York, NY, USA). […]

The test system of another data set is HeLa. Briefly: Antiproliferative assay (resazurin, 72 h). It counts as cell-based, human. Conditions: Table 2, mean ± SE. Summed up:
(§1)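 Resazurin read-out (3–4 h, fluorescence ex 535 nm/em 600 nm) after 72 h of compound exposure at 37 °C, 5% CO2. Media: RPMI-1640 for HT-29, DMEM for the other three lines, each plus 10% FBS. Top concentration 10 μM with fivefold steps, in triplicate.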
A general note: Resazurin is reduced to fluorescent resorufin, in cell work by metabolically active cells.

A further data set concerns HT-29. Kind of data set: Antiproliferative assay (resazurin, 72 h). Conditions: Table 2; mean ± SE; 72 h. It counts as cell-based, human. Summed up: as §1
A further data set deals with Jurkat. Kind of data set: Antiproliferative assay (resazurin, 72 h). It counts as cell-based, human. Conditions: Table 2; mean ± SE; 72 h. Summed up:
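Jurkat T-cell leukemia cells, grown in RPMI-1640 containing 10% fetal bovine serum, 115 units/mL penicillin G and 115 μg/mL streptomycin, were plated in 96-well plates. After 24 h they received serial 5-fold dilutions of test compounds starting at 10 μM, in triplicate, and were kept 72 h at 37 °C in 5% CO2.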

For the next data set, the system named is MDA-MB-231. Briefly: Antiproliferative assay (resazurin, 72 h). The settings on record: Table 2; mean ± SE; 72 h. It counts as cell-based, human. An outline of the steps: as §1
Another data set concerns A549. Briefly: Antiproliferative assay (resazurin, 72 h). In kind it is cell-based, human. Conditions: Table 2, mean ± SE. An outline of the steps:
as §1

In a further data set the test system is Zebrafish embryos. Briefly: Acute toxicity assessment in zebrafish embryos. In kind it is in vivo, Danio rerio. Conditions: for Results (toxicity evaluation) / % Alterations 24 h / % Lethality 24 h / % Alterations 48 h / % Lethality 48 h: 72 hpf embryos. The procedure:
Zebrafish embryos at 72 h post fertilization (hpf) were selected for the acute toxicity assay since, at that time, morphogenesis and function of the primary organ systems are complete. Embryos at 72 hpf were assayed in a 12-well plate, 20 larvae/well for each experimental condition.
The zebrafish embryos were treated as described in the Biological Results and Discussion section using drug concentrations selected on the basis of in vitro experimental data. The drugs were added directly to the fish water from 10 mM stock solutions in DMSO of tested compounds. […] CA-4P was employed as the reference compound.
The experiment was carried out at a constant temperature (28.5 °C) in the dark, and at 24 and 48 h time points, zebrafish were subjected to visual observation and image acquisition under a stereomicroscope (Nikon SMZ745T; Nikon, Japan). The number of dead zebrafish embryos for each condition was recorded, and morphological defects were evaluated. The survival rate (%) after treatment was calculated.

For data set [3], the system named is HeLa cells. Kind of data set: Scratch-migration assay. In kind it is cell-based, human. Conditions: 0.625–10 nM; 24 and 48 h. The method, then: HeLa cells were plated at 100,000 cells per well in a 6-well plate and incubated at 37 °C for 24 h. The day after seeding, cells were nearly confluent, so the sheet of cells was gently wounded through the horizontal and vertical axes using a micropipette tip. Cells were rinsed twice with PBS solution to remove cell debris; next, they were treated with different sublethal concentrations of compound 8q. At different time points, four images per experimental condition were captured using a stereomicroscope at 10X magnification. The distance between the two edges of the wound area was quantified with ImageJ software.

Each structure is given as a SMILES string. Entries after “also recorded” stand apart in the source; their conditions may differ.

As to `Cc1cc(Nc2ccc(F)cc2)n2nc(NCCCc3ccccc3)nc2n1` [Compound 8q], the “EdU incorporation / cell proliferation” value with HeLa cells [1] is “effective in reducing HeLa cell proliferation”. Moreover, in the data set on HeLa cells [2], the microtubule network organization result was “microtubules were disorganized, and the cells developed a spherical morphology”. The IC50 with HeLa came out at 29 nM; with HT-29, 49 ± 10 nM; in the data set with Jurkat it was 150 ± 20 nM; in the data set with MDA-MB-231 it was 62 ± 30 nM; in the data set on A549 it was 130 ± 90 nM. Further, the “death, morphologic changes, developmental abnormalities” value with Zebrafish embryos (100 nM and 1 μM, 24 and 48 h) was “no death and no morphologic changes or developmental abnormalities; also recorded: No abnormal phenotypes or developmental defects were seen”. Moreover, the “Results (toxicity evaluation)” value with Zebrafish embryos (100 nM) and in the data set with Zebrafish embryos (1 μM) was “Not toxic” in each case. Also, the “% Alterations 24 h” value with Zebrafish embryos (100 nM) and with Zebrafish embryos (1 μM) was 0% in each case. In addition, the “% Lethality 24 h” value with Zebrafish embryos (100 nM) and in the data set with Zebrafish embryos (1 μM) was 0% in each case. Moreover, the “% Alterations 48 h” value in the data set on Zebrafish embryos (100 nM) and in the data set on Zebrafish embryos (1 μM) was 0% each time. Further, the “% Lethality 48 h” value with Zebrafish embryos (100 nM) and in the data set on Zebrafish embryos (1 μM) was 0% in each case. For the same compound, in the data set on HeLa cells [3], the “cell migration / wound closure” value is given as “significantly arrested the movement of cells, preventing wound closure”.

One may read the IC50 as the concentration at which inhibition is half-maximal. Higher therefore signals lower potency.
